In US8067529B2, “Immunogenic T-helper epitopes from human tumour antigens and immunotherapeutic methods using said epitopes” (Immatics Biotechnologies GmbH, priority 2004, dated 2011):

Tests used:
Format in all cases: cell-based, human
T-helper cell line = experiment: T-helper cell proliferation by thymidine incorporation (stimulation index); details: T-helper cell line with irradiated autologous PBMC; 10 μM peptide or 3 μg/ml PHA; thymidine incorporation at 72 hours
Description: 3×10^5 matured DC were loaded for two hours with 10 μM of peptide […] (SEQ ID NO: 1) in a 24-well plate and extensively washed. Then 4×10^6 fresh autologous PBMC were added onto DC in the presence of 10 ng/ml IL-12p70 in order to favour Th-1 development. PBMC were weekly restimulated with peptide-loaded irradiated autologous PBMC in the presence of 10 U/ml IL-2 and 5 ng/ml IL-7. After 3 and 5 restimulations, T cells were pooled and tested against autologous PBMC in the presence of peptide. […]
T-helper cell activation was tested by cell proliferation as estimated by thymidine incorporation as well as cytokine secretion. […] After 54 hours, 50 μl of tritiated thymidine-containing medium (0.074 MBq/well, Hartmann Analytic, Braunschweig, Germany) was added and thymidine incorporation measured at 72 hours using a scintillation counter (Microbeta, Wallac, Freiburg, Germany). Cell proliferation is expressed as a stimulation index (S.I.), which corresponds to the ratio: (mean cpm of stimulated T cells)/(mean cpm of unstimulated T cells). IL-2 secretion was measured using the IL-2 dependent CTLL-2 cell line. […] Then, thymidine-containing-medium (0.055 MBq/well) was added for 7-8 additional hours and thymidine incorporation was measured as described above. Results are also expressed as a S.I.

IL-2 = IL-2 secretion measured with the IL-2 dependent CTLL-2 cell line; details: T-helper cell line with autologous PBMC; 10 μM peptide or 3 μg/ml PHA; 24 hours supernatant
Description: (§1) T-helper cell activation was tested by cell proliferation as estimated by thymidine incorporation as well as cytokine secretion. Briefly, 2×10^5 cells were incubated in triplicates in a 96-well plate with 2×10^5 irradiated autologous PBMC in the presence or absence of 10 μM peptide or 3 μg/ml PHA. After 24 hours, two portions of 50 μl supernatant were harvested and frozen and 50 μl fresh medium was added to the cells. After 54 hours, 50 μl of tritiated thymidine-containing medium (0.074 MBq/well, Hartmann Analytic, Braunschweig, Germany) was added and thymidine incorporation measured at 72 hours using a scintillation counter (Microbeta, Wallac, Freiburg, Germany). Cell proliferation is expressed as a stimulation index (S.I.), which corresponds to the ratio: (mean cpm of stimulated T cells)/(mean cpm of unstimulated T cells). IL-2 secretion was measured using the IL-2 dependent CTLL-2 cell line. Briefly, 10^4 cells were incubated in the presence of supernatants for 20-24 hours. Then, thymidine-containing-medium (0.055 MBq/well) was added for 7-8 additional hours and thymidine incorporation was measured as described above. Results are also expressed as a S.I.

IL-4 = IL-4 secretion by sandwich ELISA; details: T-helper cell line; 10 μM peptide or 3 μg/ml PHA
Description: as §1, with “cell line. […] Then, thymidine-containing-medium” for “cell line. Briefly, 10^4 cells were incubated in the presence of supernatants for 20-24 hours. Then, thymidine-containing-medium”, “a S.I. IFN-γ, IL-4 and IL-6 secretion was measured by sandwich ELISA using antibody pairs and peroxidase-conjugated streptavidin from PharMingen and according to Manufacturer's recommendations. […] OD450 was then measured and results expressed in pg/ml according to the standards.” for “a S.I.”

IL-6 = IL-6 secretion by sandwich ELISA; details: T-helper cell line; 10 μM peptide or 3 μg/ml PHA
Description: as §1, with “cell line. […] Then, thymidine-containing-medium” for “cell line. Briefly, 10^4 cells were incubated in the presence of supernatants for 20-24 hours. Then, thymidine-containing-medium”, “a S.I. IFN-γ, IL-4 and IL-6 secretion was measured by sandwich ELISA using antibody pairs and peroxidase-conjugated streptavidin from PharMingen and according to Manufacturer's recommendations. […] OD450 was then measured and results expressed in pg/ml according to the standards.” for “a S.I.”

Ii-fusion proteins = experiment: Endosomal/lysosomal targeting of the fusion proteins (chloroquin, Western blot with mAb PIN.1); details: transfectants incubated 4 h with increasing amounts of chloroquin (10-100 μM)
Description: Fusion proteins were detected by Western blot analysis using the mAb PIN.1 (Stressgen, Biomol, Hamburg, Germany) which binds to amino acid residues 12-28 of Ii. Briefly, cells were lysed as described (Hsieh, C. S., deRoos, P., Honey, K., Beers, C. & Rudensky, A. Y. (2002) J. Immunol. 168, 2618-2625), lysates were boiled in Laemmli loading buffer, separated on a 12% SDS-PAGE and transferred onto nitrocellulose membranes. After a saturation step with BSA, membranes were incubated for 1 h at room temperature with the mAb PIN.1 (1 μg/ml). Proteins were visualised using a peroxidase-coupled sheep anti-mouse IgG (Amersham Pharmacia, Freiburg, Germany). […] Cells were then lysed and proteins were detected by Western blot as described above.
It has already been described that the N-terminus of Ii is sufficient to target proteins into the MHC class II pathway (Sanderson, S., Frauwirth, K. & Shastri, N. (1995) Proc. Natl. Acad. Sci. U.S. A 92, 7217-7221, Wang, R. F., Wang, X., Atwood, A. C., Topalian, S. L. & Rosenberg, S. A. (1999) Science 284, 1351-1354, Malcherek, G., Wirblich, C., Willcox, N., Rammensee, H. G., Trowsdale, J. & Melms, A. (1998) Eur. J. Immunol. 28, 1524-1533). […] Cells were then lysed and fusion proteins were detected by Western blot.

IFN-γ = IFN-γ secretion by sandwich ELISA; details: peptide-induced T-cell stimulation, 10 μM peptide; 24 hours supernatant
Description: as §1, with “cell line. […] Then, thymidine-containing-medium” for “cell line. Briefly, 10^4 cells were incubated in the presence of supernatants for 20-24 hours. Then, thymidine-containing-medium”, “a S.I. IFN-γ, IL-4 and IL-6 secretion was measured by sandwich ELISA using antibody pairs and peroxidase-conjugated streptavidin from PharMingen and according to Manufacturer's recommendations. […] OD450 was then measured and results expressed in pg/ml according to the standards.” for “a S.I.”

Compound | T-cell proliferation, stimulation index (S.I.) (T-helper cell line) | IL-2 production of the T cells (IL-2) | IL-4 secretion (IL-4) | IL-6 secretion (IL-6) | fusion protein amounts (Western blot band intensity) (Ii-fusion proteins) | IFN-γ secretion (IFN-γ) [pg/mL]
Phytohaemagglutinin [PHA] | 330 | still sensitive to PHA stimulation | highly | moderately | – | –
CCN(CC)CCCC(C)Nc1ccnc2cc(Cl)ccc12 (stereo not shown) [chloroquin] | – | – | – | – | fusion protein amounts increase with chloroquin concentrations | –
NPPSMVAAGSVVAAV (listed as Homo sapiens) [cyclin D1 peptide, immunogenic HLA-DR4-presented cyclin D1 peptide antigen] | 5.4 | produced IL-2 in response to the peptide, although to a low extent | no IL-4 or IL-6 secretion | no IL-4 or IL-6 secretion | – | 3250
